1 molecule from patent US20260355199A1, “COMPOSITIONS AND METHODS FOR TREATING OR PREVENTING NONALCOHOLIC STEATOHEPATITIS (NASH), ANOREXIA, DEPRESSION, ENDOMETRIOSIS, AND OTHER DISEASES OR DISORDERS” (priority 2022, published 2026) can be followed below.

Entries after “also recorded” stand apart in the source; their conditions may differ.

Data set [1] can be described thus: Liver toxicity after three weeks of once-a-week Bobcat339. The data set is classed as in vivo, mouse. On the procedure: For corticosterone, blood samples were obtained via retroorbital bleeding between 19:00 and 20:00. For alanine transaminase, aspartate transaminase and bilirubin, blood samples were collected by cardiac puncture of terminally anesthetized animals. All blood samples were collected in EDTA tubes (Microtainer with K2EDTA, BD, 365974). The tubes were centrifuged at 2,000×g at 4 °C for 20 min, and plasma was collected and stored at −80 °C until use. Plasma corticosterone levels were measured using Corticosterone ELISA kit (Enzo, ADI-900-097) according to the manufacturer's instructions. Kits used to measure alanine transaminase (EALT-100) and aspartate transaminase (EASTR-100) were purchased from Bioassay Systems. The bilirubin assay kit (MAK126) was purchased from Sigma Aldrich.

Data set [2] relates to TET3. Description: TET3 protein in THP-1 cells. The data set is classed as cell-based, human. Particulars: THP-1, 10 μM, 24 h. As for the experimental part: Bobcat339 Treatment of Cultured Cells Bobcat339 powder (Sigma-Aldrich, SML2611) was freshly dissolved in DMSO at a concentration of 5 mM and filtered through a 0.22 micron. Cells grown at a density of 80-90% were incubated in growth media with vehicle (DMSO) or Bobcat339 at a final concentration of 10 μM for 24 h, followed by RNA and protein extraction.
Cells were homogenized in situ using a pipette tip in 2×SDS-sample buffer with 10% β-mercaptoethanol at RT followed by heating at 100 °C for 5 min with occasional vortexing. The samples were loaded onto a 4-15% gradient SDS gel (Bio-rad, 456-8086) (10 μL/well) and transferred to nitrocellulose membranes, followed by Western blot analysis. The antibodies used were anti-TET3 (diluted at 1:1000, GeneTex, GTX121453 for human; diluted at 1:1000, Active Motif, 61395 for mouse), anti-TET2 (diluted at 1:1000, Proteintech, 21207-1-AP for human/mouse), anti-TGF-β1 (diluted at 1:1000, Abcam, ab215715 for human), anti-Lin28A (diluted at 1:1000, Cell Signaling, 3978S), and HRP-conjugated anti-GAPDH (dilution 1:5000; Proteintech, HRP-60004). The secondary antibody was HRP-linked Anti-rabbit IgG (dilution 1:10,000; Rockland, 611-1322).

Data set [3] relates to TET3. Description: TET3 protein in human MDMs. The data set is classed as cell-based. Particulars: 24 h. As for the experimental part:
For siRNA transfection in a 24-well plate scale of MDMs, NT siRNA or TET3 siRNA (4392420/s47239, Ambion) was mixed with 25 μL of OPTI-MEM by gentle pipetting. In parallel, 1.5 μL of Lipofectamine RNAiMAX was mixed with 25 μL of OPTI-MEM by gentle pipetting. Following 5 min of incubation at RT, the resulting 50 μl of transfection solution was added to each well of cells containing 450 μL of growth media.
Bobcat339 Treatment of Cultured Cells Bobcat339 powder (Sigma-Aldrich, SML2611) was freshly dissolved in DMSO at a concentration of 5 mM and filtered through a 0.22 micron. […]
For cultured MDMs, cells were primed with CM-Endo or TGF-β1 (PeproTech, 100-21) for 36-48 h (to increase TET3 expression) before Bobcat339 treatment.
Cells were homogenized in situ using a pipette tip in 2×SDS-sample buffer with 10% β-mercaptoethanol at RT followed by heating at 100 °C for 5 min with occasional vortexing. The samples were loaded onto a 4-15% gradient SDS gel (Bio-rad, 456-8086) (10 μL/well) and transferred to nitrocellulose membranes, followed by Western blot analysis. […]

In another data set the test system is Caspase-1. Kind of data set: Caspase-1 assay in human MDMs. The data set is classed as cell-based. Particulars: 10 μM, 48 h. As for the experimental part: For TET3 expression restoration experiments, cells seeded in 24-well plates were infected with Ad-GFP or Ad-TET3 at 4000 gc/cell. Following 16 h of infection, vehicle or Bobcat339 were added at a final concentration of 10 μM. Protein and RNA were isolated 48 hours later and analyzed.
These were carried out using the Apoptosis/Caspase-1 assay kit (MyBioSource, MBS258046). Briefly, after wash with PBS, cells were incubated with 1×FAM-FLCA working solution in 300 μL growth media at 37 °C for 1 hour, followed by wash with 1× Cellular Wash Buffer three times. Hoechst 33342 was applied to counter-stain the cells for 15 min. Cells were then covered with mounting media and coverslips and scoped using a Keyence BZ-X700 fluorescence microscope.

Data set [4] deals with murine model of endometriosis. Kind of data set: Surgically induced murine model of endometriosis. The data set is classed as in vivo, mouse. On the procedure:
Female mice were randomly divided into three groups (sham, endometriosis treated with vehicle, and endometriosis treated with Bobcat) and subjected to surgery (week 1) to induce endometriosis or sham (FIG. 22A). The first once-a-week intraperitoneal (i.p.) injection of Bobcat339 (or vehicle) at a dose of 2.5 mg/kg was performed on week 3, followed by euthanasia and blood and tissue collection at week 9.
Given that Bobcat339 degrades TET3 inducing apoptosis (FIG. 26) and that myeloid-specific Tet3 ablation attenuates endometriosis (FIG. 28A through FIG. 28C), studies were performed to test whether Bobcat339 would elicit therapeutic effects on endometriosis. Thus, female mice were randomly divided into three groups (sham, endometriosis treated with vehicle, and endometriosis treated with Bobcat339) and subjected to surgery (week 0) to induce endometriosis or sham (FIG. 28D). The first once-a-week intraperitoneal (i.p.) injection of Bobcat339 (or vehicle) at a dose of 2.5 mg/kg body weight was performed on week 2, followed by euthanasia and blood and tissue collection on week 8. The dose of 2.5 mg/kg was chosen based on the previous studies showing no discernible liver toxicity in mice (Lv et al., 2023, Proc Natl Acad Sci USA, In press).
As Bobcat339 destabilized TET3, thus promoting macrophage apoptosis, additional studies tested whether Bobcat339 inhibits endometriosis (FIG. 25). Female mice were randomly divided into three groups (sham, endometriosis treated with vehicle, and endometriosis treated with Bobcat339) and subjected to surgery (week 0) to induce endometriosis or sham (FIG. 26). The first once-a-week intraperitoneal (i.p.) injection of Bobcat339 (or vehicle) at a dose of 3 mg/kg body weight was performed on week 2, followed by euthanasia and sample collection on week 8.
Bobcat339 powder was freshly dissolved in DMSO at a concentration of 50 mg/mL and filtered through a 0.22 micron filter. It was further diluted with 1×PBS to a final concentration of 0.5 mg/mL before injections. Mice were injected intraperitoneally with Bobcat339 at 2.5 mg/kg body weight.
Briefly, uterus horns were removed from wild-type female donor mice, opened longitudinally and cut into fragments of 3 mm. Two uterine segments were sutured to each right and left parietal peritoneum of recipient mice (6-7 weeks old) with absorbable suture. Sham surgeries were performed for sham group, using the same surgical procedure without the introduction of extraneous uterine tissue. The experimental model was allowed to develop for more than 4 weeks. Development of the model was confirmed by opening the abdominal cavity and measuring the size of endometriotic lesions both macroscopically and histologically.

As to `Nc1nc(=O)n(-c2cccc(-c3ccccc3)c2)cc1Cl` [Bobcat339, 4-Amino-1-[1,1′-biphenyl]-3-yl-5-chloro-2(1H)-pyrimidinone], the tolerability result in data set [1] (3-weeks of once-a-week i.p. injection) is on record as “well tolerated”. Further, the liver toxicity entry in data set [1] (three weeks of once-a-week i.p. Bobcat339) is “no evidence of liver toxicity; also recorded: no liver toxicity has been detected”. Besides, the TET3 protein level result with TET3 [2] was “a decrease in TET3 at the protein level”. For the same molecule, the TET3 protein level entry in the data set with TET3 [3] (10 μM) is recorded as “a decrease in TET3 expression; also recorded: decreased the level of TET3 protein”. In the data set on TET3 [3] (10 mM (so in the source)), the “steady-state level of TET3 protein” value is on record as “a decrease in the steady-state level of TET3 protein”. Moreover, in the data set with Caspase-1, the “apoptosis (Caspase-1)” value is “increased apoptosis; also recorded: a significant increase in pyroptotic cell death”. Also, in data set [4] (2.5 mg/kg i.p. once a week), the “TET3-expressing (CD163 double positive) macrophages in lesions” value is reported as “depletion of TET3/CD163-double positive cells; also recorded: depletion of TET3-expressing macrophages”, the body weight entry is “no statistically significant differences were observed in body weight; also recorded: nor was there a significant difference in body weight”, the endometriosis lesion volume result is “significantly reduced the lesion volume; also recorded: a significant decrease in lesion volume; also recorded: a significantly decrease in lesion volume” and the “food intake / appetite in endometriosis mice” value is “the decrease was not observed; also recorded: improved appetite”. Further, in data set [4] (3 mg/kg i.p. once a week), the “IL-1b and IL-6 expression in CD163+ macrophage-enriched areas” value was “a dramatic reduction in the expression of IL-1b and IL-6”; the body weight entry was “nor was there a significant difference in body weight”; the endometriosis lesion volume entry was “significantly reduced the lesion volume”; the “number of TET3-overexpressing CD163+ macrophages” value is “a marked decrease in the number of TET3-overexpressing CD163^+ macrophages”.
